Data taken from ChEMBL document CHEMBL3046389, “Synthesis and biological evaluation of novel hydroquinone dimethyl ethers as potential anticancer and antimicrobial agents” (2013).
Values after ≈ are worked out from the molar mass of the structure shown.

Tests used:
Type in all cases: functional
UACC-62 = experiment: Growth inhibition of Homo sapiens (human) UACC62 cells at 10 uM after 48 hr by SRB assay; conditions: UACC-62, 48 h, read-out: GI
SW-620 = experiment: Growth inhibition of Homo sapiens (human) SW620 cells at 10 uM after 48 hr by SRB assay; conditions: SW-620, 48 h, read-out: GI
KM12 [1] = experiment: Anticancer activity against Homo sapiens (human) KM12 cells after 48 hr by SRB assay; conditions: KM12, 48 h; for CC50: read-out: LC50 (the source's name)
SN12C = experiment: Growth inhibition of Homo sapiens (human) SN12C cells at 10 uM after 48 hr by SRB assay; conditions: read-out: GI
K562 = experiment: Growth inhibition of Homo sapiens (human) K562 cells at 10 uM after 48 hr by SRB assay; conditions: K562, 48 h, read-out: GI
SNB-75 = experiment: Anticancer activity against Homo sapiens (human) SNB75 cells after 48 hr by SRB assay; conditions: SNB-75, 48 h; for CC50: read-out: LC50 (the source's name)
DU-145 = experiment: Anticancer activity against Homo sapiens (human) DU145 cells after 48 hr by SRB assay; conditions: DU-145, 48 h
RPMI-8226 = experiment: Anticancer activity against Homo sapiens (human) RPMI8226 cells after 48 hr by SRB assay; conditions: RPMI-8226, 48 h; for CC50: read-out: LC50 (the source's name)
A549 = experiment: Growth inhibition of Homo sapiens (human) A549/ATCC cells at 10 uM after 48 hr by SRB assay; conditions: A549, 48 h, read-out: GI
OVCAR-5 = experiment: Anticancer activity against Homo sapiens (human) OVCAR5 cells after 48 hr by SRB assay; conditions: OVCAR-5, 48 h; for CC50: read-out: LC50 (the source's name)
SF-539 = experiment: Anticancer activity against Homo sapiens (human) SF539 cells after 48 hr by SRB assay; conditions: SF-539, 48 h; for CC50: read-out: LC50 (the source's name)
PC-3 = experiment: Growth inhibition of Homo sapiens (human) PC3 cells at 10 uM after 48 hr by SRB assay; conditions: PC-3, 48 h, read-out: GI
NCI-H460 [2] = experiment: Anticancer activity against Homo sapiens (human) NCI-H460 cells after 48 hr by SRB assay; conditions: NCI-H460, 48 h; for CC50: read-out: LC50 (the source's name)
MOLT-4 [3] = experiment: Growth inhibition of Homo sapiens (human) MOLT4 cells at 10 uM after 48 hr by SRB assay; conditions: MOLT-4, 48 h, read-out: GI
Escherichia coli = experiment: Antimicrobial activity against Escherichia coli ATCC 11775 after 48 hr by two-fold serial broth dilution method; conditions: ATCC 11775, 48 h
UACC-257 = experiment: Anticancer activity against Homo sapiens (human) UACC257 cells after 48 hr by SRB assay; conditions: UACC-257, 48 h
SF-268 = experiment: Anticancer activity against Homo sapiens (human) SF268 cells after 48 hr by SRB assay; conditions: SF-268, 48 h; for CC50: read-out: LC50 (the source's name)
MOLT-4 [4] = experiment: Anticancer activity against Homo sapiens (human) MOLT4 cells after 48 hr by SRB assay; conditions: MOLT-4, 48 h; for CC50: read-out: LC50 (the source's name)
MDA-MB-435 = experiment: Growth inhibition of Homo sapiens (human) MDA-MB-435 cells at 10 uM after 48 hr by SRB assay; conditions: MDA-MB-435, 48 h, read-out: GI
BT-549 [5] = experiment: Growth inhibition of Homo sapiens (human) BT549 cells at 10 uM after 48 hr by SRB assay; conditions: BT-549, 48 h, read-out: GI
T47D = experiment: Anticancer activity against Homo sapiens (human) T47D cells after 48 hr by SRB assay; conditions: for CC50: read-out: LC50 (the source's name)
HL-60(TB) = experiment: Anticancer activity against Homo sapiens (human) HL-60(TB) cells after 48 hr by SRB assay; conditions: HL-60, 48 h; for CC50: read-out: LC50 (the source's name)
KM12 [6] = experiment: Growth inhibition of Homo sapiens (human) KM12 cells at 10 uM after 48 hr by SRB assay; conditions: KM12, 48 h, read-out: GI
NCI-H23 = experiment: Growth inhibition of Homo sapiens (human) NCI-H23 cells at 10 uM after 48 hr by SRB assay; conditions: NCI-H23, 48 h, read-out: GI
BT-549 [7] = experiment: Anticancer activity against Homo sapiens (human) BT549 cells after 48 hr by SRB assay; conditions: BT-549, 48 h; for CC50: read-out: LC50 (the source's name)
NCI-H460 [8] = experiment: Growth inhibition of Homo sapiens (human) NCI-H460 cells at 10 uM after 48 hr by SRB assay; conditions: NCI-H460, 48 h, read-out: GI
RXF 393 = experiment: Growth inhibition of Homo sapiens (human) RXF393 cells at 10 uM after 48 hr by SRB assay; conditions: RXF 393, 48 h, read-out: GI
SK-OV-3 [9] = experiment: Anticancer activity against Homo sapiens (human) SKOV3 cells after 48 hr by SRB assay; conditions: SK-OV-3, 48 h
MCF7 = experiment: Growth inhibition of Homo sapiens (human) MCF7 cells at 10 uM after 48 hr by SRB assay; conditions: MCF7, 48 h, read-out: GI
HT-29 = experiment: Anticancer activity against Homo sapiens (human) HT-29 cells after 48 hr by SRB assay; conditions: HT-29, 48 h; for CC50: read-out: LC50 (the source's name)
786-0 = experiment: Anticancer activity against Homo sapiens (human) 786-0 cells after 48 hr by SRB assay; conditions: 786-0, 48 h; for CC50: read-out: LC50 (the source's name)
HOP-62 = experiment: Growth inhibition of Homo sapiens (human) HOP62 cells at 10 uM after 48 hr by SRB assay; conditions: HOP-62, 48 h, read-out: GI
SK-OV-3 [10] = experiment: Growth inhibition of Homo sapiens (human) SKOV3 cells at 10 uM after 48 hr by SRB assay; conditions: SK-OV-3, 48 h, read-out: GI

SMILES: COc1ccc(OC)c(/C=C/c2nnc(S)n2-c2ccc(Cl)cc2)c1
- inhibition of growth at 10 µM (UACC-62): 57.2%
- inhibition of growth at 10 µM (SW-620): 49.6%
- GI50 (KM12 [1]): 4.02 µM
- TGI (KM12 [1]): > 100 µM
- CC50 (KM12 [1]): > 100 µM
- inhibition of growth at 10 µM (SN12C): 33.8%
- inhibition of growth at 10 µM (K562): 77.6%
- GI50 (SNB-75): 2.85 µM
- TGI (SNB-75): > 100 µM
- CC50 (SNB-75): > 100 µM
- GI50 (DU-145): 19.1 µM
- TGI (DU-145): > 100 µM
- CC50 (DU-145; read-out: LC50 (the source's name)): > 100 µM
- GI50 (RPMI-8226): 5.22 µM
- TGI (RPMI-8226): > 100 µM
- CC50 (RPMI-8226): > 100 µM
- inhibition of growth at 10 µM (A549): 33.7%
- GI50 (OVCAR-5): 70.3 µM
- TGI (OVCAR-5): > 100 µM
- CC50 (OVCAR-5): > 100 µM
- GI50 (SF-539): 4.05 µM
- TGI (SF-539): 97.9 µM
- CC50 (SF-539): > 100 µM
- inhibition of growth at 10 µM (PC-3): 41.4%
- GI50 (NCI-H460 [2]): 4.53 µM
- TGI (NCI-H460 [2]): > 100 µM
- CC50 (NCI-H460 [2]): > 100 µM
- inhibition of growth at 10 µM (MOLT-4 [3]): 47.2%
- MBC (Escherichia coli): 50 µg/mL (≈ 134 µM)
- MIC (Escherichia coli): 50 µg/mL (≈ 134 µM)
- GI50 (UACC-257): > 100 µM
- LC50 (50% lethal concentration) (UACC-257): > 100 µM
- TGI (UACC-257): > 100 µM
- GI50 (SF-268): 17.5 µM
- TGI (SF-268): > 100 µM
- CC50 (SF-268): > 100 µM
- GI50 (MOLT-4 [4]): 7.74 µM
- TGI (MOLT-4 [4]): > 100 µM
- CC50 (MOLT-4 [4]): > 100 µM
- inhibition of growth at 10 µM (MDA-MB-435): 110%
- inhibition of growth at 10 µM (BT-549 [5]): 32.8%
- GI50 (T47D): 4.5 µM
- TGI (T47D): > 100 µM
- CC50 (T47D): > 100 µM
- GI50 (HL-60(TB)): 3.57 µM
- TGI (HL-60(TB)): > 100 µM
- CC50 (HL-60(TB)): > 100 µM
- inhibition of growth at 10 µM (KM12 [6]): 59.1%
- inhibition of growth at 10 µM (NCI-H23): 51.3%
- GI50 (BT-549 [7]): 9.38 µM
- TGI (BT-549 [7]): > 100 µM
- CC50 (BT-549 [7]): > 100 µM
- inhibition of growth at 10 µM (NCI-H460 [8]): 61.1%
- inhibition of growth at 10 µM (RXF 393): 48.1%
- GI50 (SK-OV-3 [9]): 9.4 µM
- LC50 (SK-OV-3 [9]): > 100 µM
- TGI (SK-OV-3 [9]): > 100 µM
- inhibition of growth at 10 µM (MCF7): 68%
- GI50 (HT-29): 3.67 µM
- TGI (HT-29): > 100 µM
- CC50 (HT-29): > 100 µM
- GI50 (786-0): 7.17 µM
- TGI (786-0): > 100 µM
- CC50 (786-0): > 100 µM

SMILES: COc1ccc(OC)c(/C=C/C(=O)N/N=C/c2ccccc2)c1
- inhibition of growth at 10 µM (UACC-62): 39%
- inhibition of growth at 10 µM (HOP-62): 32.7%
- inhibition of growth at 10 µM (SW-620): 71.3%
- GI50 (KM12 [1]): 0.834 µM
- TGI (KM12 [1]): 3.75 µM
- CC50 (KM12 [1]): 29.4 µM
- inhibition of growth at 10 µM (SN12C): 47.9%
- inhibition of growth at 10 µM (K562): 78.8%
- GI50 (SNB-75): 4.39 µM
- TGI (SNB-75): 37.3 µM
- CC50 (SNB-75): > 100 µM
- GI50 (RPMI-8226): 2.99 µM
- TGI (RPMI-8226): 9.96 µM
- CC50 (RPMI-8226): > 100 µM
- inhibition of growth at 10 µM (A549): 51.6%
- GI50 (OVCAR-5): 18 µM
- TGI (OVCAR-5): > 100 µM
- CC50 (OVCAR-5): > 100 µM
- GI50 (SF-539): 4.42 µM
- TGI (SF-539): 25.1 µM
- CC50 (SF-539): > 100 µM
- inhibition of growth at 10 µM (PC-3): 36.5%
- GI50 (NCI-H460 [2]): 2.08 µM
- TGI (NCI-H460 [2]): 5.62 µM
- CC50 (NCI-H460 [2]): 28.3 µM
- inhibition of growth at 10 µM (MOLT-4 [3]): 63.5%
- MBC (Escherichia coli): 50 µg/mL (≈ 161 µM)
- MIC (Escherichia coli): 50 µg/mL (≈ 161 µM)
- GI50 (UACC-257): 5.76 µM
- LC50 (50% lethal concentration) (UACC-257): > 100 µM
- TGI (UACC-257): 33.6 µM
- GI50 (SF-268): 7.56 µM
- TGI (SF-268): > 100 µM
- CC50 (SF-268): > 100 µM
- GI50 (MOLT-4 [4]): 4.45 µM
- TGI (MOLT-4 [4]): > 100 µM
- CC50 (MOLT-4 [4]): > 100 µM
- inhibition of growth at 10 µM (MDA-MB-435): 108%
- inhibition of growth at 10 µM (BT-549 [5]): 39.2%
- GI50 (T47D): 4.86 µM
- TGI (T47D): > 100 µM
- CC50 (T47D): > 100 µM
- GI50 (HL-60(TB)): 2.03 µM
- TGI (HL-60(TB)): 13.7 µM
- CC50 (HL-60(TB)): > 100 µM
- inhibition of growth at 10 µM (SK-OV-3 [10]): 40%
- inhibition of growth at 10 µM (KM12 [6]): 69%
- inhibition of growth at 10 µM (NCI-H23): 34.9%
- GI50 (BT-549 [7]): 4.05 µM
- TGI (BT-549 [7]): 90.4 µM
- CC50 (BT-549 [7]): > 100 µM
- inhibition of growth at 10 µM (NCI-H460 [8]): 86.5%
- inhibition of growth at 10 µM (RXF 393): 54.6%
- GI50 (SK-OV-3 [9]): 12 µM
- LC50 (SK-OV-3 [9]): > 100 µM
- TGI (SK-OV-3 [9]): > 100 µM
- inhibition of growth at 10 µM (MCF7): 82.7%
- GI50 (HT-29): 2.1 µM
- TGI (HT-29): > 100 µM
- CC50 (HT-29): > 100 µM
- GI50 (786-0): 7 µM
- TGI (786-0): 72.5 µM
- CC50 (786-0): > 100 µM
